From patent US20040191297A1, “Carotenoid formulation” (priority 1997, published 2004)
“And” between values parts separate entries of the source, which are not always exact repeats. Identical values can stand only once.

Tests used:
α-tocopherol = assay: Liver vitamin E assay; format: in vivo, Fischer 344 rats; settings: for Liver α-tocopherol: female
Excerpt: The effect of the tomato carotenoid supplement on the absorption and storage of two important fat soluble vitamins, namely, retinol and α-tocopherol, was investigated. Using established HPLC methods, a strong liner dose-response relationship was found between the lycopene content of the liver and both retinol and a-tocopherol concentration in female R-344 rats (Table 23).

[1] = Lycopene content of rat serum; format: in vivo, Fischer 344 rats
Protocol: Prior to termination, 3 animals from each group were placed in metabolic cages and 24-hour urine and fecal collections made for subsequent lycopene assay. Blood was collected by heart puncture under anesthesia for lycopene assay and all animals were sacrificed by CO2 anesthesia. Blood and feces were stored at −20° C. At necropsy, all major organ systems were grossly inspected. Any unusual appearing tissues were placed in formalin and saved for later histological examination.
Extraction of lycopene from serum was conducted by adding 1 ml of serum to 0.1 ml echinenone standard in ethanol and 0.9 ml ethanol. The mixture was then vortexed for 20 seconds, and 2.0 ml hexane added and mixed vigorously for 1 minute. The cloudy mixture was then centrifuged at 3,000 rpm for 15 minutes at 4° C. and the clear hexane layer was decanted. The above procedure was repeated 3-5×. The pooled hexane fraction was then dried under N2 gas at 60° C., and the residue dissolved in 0.5 ml HPLC solvent and analyzed by HPLC.

[2] = Lycopene content of rat prostate gland; format: in vivo, Fischer 344 rats; settings: male
Excerpt: (§1) homogenized. […] This hexane extraction procedure was repeated 5-7 times.

[3] = Ten-week MTD feeding study: weight gain and toxicity; format: in vivo
Protocol: Inbred Fischer F344 males (n=70) and females (n=70) were obtained from Taconic Farms, Germantown, N.Y. At about 35 days of age, all animals were transferred to the experimental room from quarantine. The animals were then allocated into experimental groups using formal randomization methods to ensure that each group contained animals of the same mean weight.
A ten-week pilot study was conducted as described in Table 2 & FIG. 2 to determine the maximal tolerated dose (MTD) for lycopene in both male (colon model) and female (breast model) rats. The choice of dose ranges was based on published values for β-carotene. A mixed carotenoid composition containing 5.7% carotenoids, including 3.7% pure lycopene was suspended in medium chain triglycerides (this composition will be referred to below as the “Lycopene Suspension”). The Lycopene Suspension was incorporated into the AIN-76A diet.
Differences in the lipid content of the various treatment groups were controlled by supplementing their diets with appropriate amounts of Neobee® medium chain triglyceride (Stepan Co., Maywood, N.J.) such that all animals, including controls, received the same amount of dietary fat.
Animal weights were recorded once per week and animal appearance (coat texture) and food avoidance behavior assessed. By concentration,
the maximal tolerated dose is that dose which […] mean body weight loss.

[4] = Concentration of lycopene in rat lung; format: in vivo, Fischer 344 rats
Protocol: Extraction of lycopene from diet was as follows: A sample of diet containing lycopene was suspended in the injection solvent (Table 4) and homogenized in a polytron homogenizer. Echinenone was added as an internal standard and the mixture centrifuged at 3000 rpm at 4° C. for 15 minutes. The supernatant was decanted and saved and the extraction repeated. The pooled extracts were then dried under N2 gas at 60° C. and the residue dissolved in 0.5 ml injection solvent and then subjected to HPLC analysis. The same method, with minor variations, was used for feces and for lung tissue. The efficiency of lycopene extraction from the diet is shown in Table 6 A&B. At any concentration tested the efficiency ranged from 75% at the highest concentration to 100% for the lowest concentration of lycopene.
as §1

[5] = female, Group 1 (1280 mg/kg diet)
[6] = female, Group 2 (512 mg/kg diet)
[7] = female, Group 3 (256 mg/kg diet)
[8] = female, Group 5 (51 mg/kg diet)
[9] = male, Group 1 (1280 mg/kg diet)
[10] = female rat, Group 1, 1280 in diet
[11] = female rat, Group 2, 512 in diet
[12] = female rat, Group 3, 256 in diet
[13] = female rat, Group 4, 128 in diet
[14] = female rat, Group 5, 51 in diet
[15] = male rat, Group 1, 1280 in diet

In the case of CC(C)=CCC/C(C)=C/C=C/C(C)=C/C=C/C(C)=C/C=C/C=C(C)/C=C/C=C(C)/C=C/C=C(\C)CCC=C(C)C [Lycopene], the “difference in liver α-tocopherol between controls and the highest lycopene dose” value (α-tocopherol; female rats) is reported as 4 fold, the “Liver α-tocopherol” value (α-tocopherol; Group 1, lycopene 1280 mg/kg diet) is reported as 47 μg/gm and the “Liver α-tocopherol” value (α-tocopherol; Group 3, lycopene 256 mg/kg diet) is reported as 39 μg/gm. For the same compound, the “Liver α-tocopherol” value (α-tocopherol; Group 4, lycopene 128 mg/kg diet) was 46 μg/gm, the “Liver α-tocopherol” value (α-tocopherol; Group 5, lycopene 51 mg/kg diet) was 32 μg/gm and the concentration at 10 weeks ([1]; both sexes, Fischer 344, rat, serum, oral, all supplemented groups, males and females, read-out: Serum lycopene levels, overall low to high) was 80 to 370 ng/mL. The “Lycopene content of serum, Median” value [1, 5] was 205 ng/mL, the “Lycopene content of serum, Range” value [1, 5] was 123 to 232 ng/mL and the “Lycopene content of serum, mean ± SD” value [1, 5] was 187 ± 043 ng/mL. For the same compound, the “Lycopene content of serum, Median” value [1, 6] was 180 ng/mL, the “Lycopene content of serum, Range” value [1, 6] was 109 to 211 ng/mL and the “Lycopene content of serum, mean ± SD” value [1, 6] was 169 ± 042 ng/mL. The “Lycopene content of serum, Median” value [1, 7] was 210 ng/mL, the “Lycopene content of serum, Range” value [1, 7] was 174 to 366 ng/mL and the “Lycopene content of serum, mean ± SD” value [1, 7] was 245 ± 083 ng/mL. For the same compound, the “Lycopene content of serum, Median” value [1, 8] was 152 ng/mL, the “Lycopene content of serum, Range” value [1, 8] was 081 to 207 ng/mL and the “Lycopene content of serum, mean ± SD” value [1, 8] was 145 ± 053 ng/mL. The “Lycopene content of serum, Median” value [1, 9] was 160 ng/mL, the “Lycopene content of serum, Range” value [1, 9] was 134 to 230 ng/mL and the “Lycopene content of serum, mean ± SD” value [1, 9] was 168 ± 036 ng/mL. For the same compound, the “Lycopene content of serum, Median” value ([1]; male, Group 2 (512 mg/kg diet)) was 225 ng/mL, the “Lycopene content of serum, Range” value ([1]; male, Group 2 (512 mg/kg diet)) was 148 to 326 ng/mL and the “Lycopene content of serum, mean ± SD” value ([1]; male, Group 2 (512 mg/kg diet)) was 227 ± 068 ng/mL. The “Lycopene content of serum, Median” value ([1]; male, Group 3 (256 mg/kg diet)) was 285 ng/mL, the “Lycopene content of serum, Range” value ([1]; male, Group 3 (256 mg/kg diet)) was 174 to 372 ng/mL and the “Lycopene content of serum, mean ± SD” value ([1]; male, Group 3 (256 mg/kg diet)) was 278 ± 066 ng/mL. For the same compound, the “Lycopene content of serum, Median” value ([1]; male, Group 4 (128 mg/kg diet)) was 215 ng/mL, the “Lycopene content of serum, Range” value ([1]; male, Group 4 (128 mg/kg diet)) was 153 to 328 ng/mL and the “Lycopene content of serum, mean ± SD” value ([1]; male, Group 4 (128 mg/kg diet)) was 231 ± 064 ng/mL. For the same compound, the “Lycopene content of serum, Median” value ([1]; male, Group 5 (51 mg/kg diet)) was 177 ng/mL, the “Lycopene content of serum, Range” value ([1]; male, Group 5 (51 mg/kg diet)) was 100 to 238 ng/mL and the “Lycopene content of serum, mean ± SD” value ([1]; male, Group 5 (51 mg/kg diet)) was 171 ± 049 ng/mL. For the same compound, the “Lycopene content of prostate gland, Median” value ([2]; Group 1 (1280 mg/kg diet)) was 99 ng/g, the “Lycopene content of prostate gland, Range” value ([2]; Group 1 (1280 mg/kg diet)) was 79 to 112 ng/g and the “Lycopene content of prostate gland, mean ± SD” value ([2]; Group 1 (1280 mg/kg diet)) was 97 ± 17 ng/g. The “Lycopene content of prostate gland, Median” value ([2]; Group 2 (512 mg/kg diet)) was 83 ng/g, the “Lycopene content of prostate gland, Range” value ([2]; Group 2 (512 mg/kg diet)) was 54 to 147 ng/g and the “Lycopene content of prostate gland, mean ± SD” value ([2]; Group 2 (512 mg/kg diet)) was 95 ± 48 ng/g. The “Lycopene content of prostate gland, Median” value ([2]; Group 3 (256 mg/kg diet)) was 35 ng/g, the “Lycopene content of prostate gland, Range” value ([2]; Group 3 (256 mg/kg diet)) was 23 to 93 ng/g and the “Lycopene content of prostate gland, mean ± SD” value ([2]; Group 3 (256 mg/kg diet)) was 50 ± 37 ng/g. The “Lycopene content of prostate gland, Median” value ([2]; Group 4 (128 mg/kg diet)) was 52 ng/g, the “Lycopene content of prostate gland, Range” value ([2]; Group 4 (128 mg/kg diet)) was 26 to 77 ng/g and the “Lycopene content of prostate gland, mean ± SD” value ([2]; Group 4 (128 mg/kg diet)) was 52 ± 26 ng/g. For the same compound, the “Lycopene content of prostate gland, Median” value ([2]; Group 5 (51 mg/kg diet)) was 47 ng/g, the “Lycopene content of prostate gland, Range” value ([2]; Group 5 (51 mg/kg diet)) was 32 to 63 ng/g and the “Lycopene content of prostate gland, mean ± SD” value ([2]; Group 5 (51 mg/kg diet)) was 47 ± 16 ng/g. For the same compound, the toxicity ([3]; F-344 rat, dose range used) was “no evidence of lycopene toxicity”, the “difference in weight gains between doses” value ([3]; analysis of variance for repeated measures) was “no difference” and the “weight gain difference, control vs supplemented rats” value ([3]; end of 10 weeks) was no more than 10%. The “effect on food intake or weight gain” value ([3]; male and female rats, dosage range used) was “no deleterious effect”, the “Concentration of lycopene in lung, average” value (“Concentration … average” for short) [4, 10] was 227 ngs/gm and the “Concentration of lycopene in lung, individual” value (from here on “Concentration … individual”) [4, 10] was 184 ngs/gm and 270 ngs/gm. For the same compound, the “Concentration … average” value [4, 11] was 246 ngs/gm, the “Concentration … individual” value [4, 11] was 211 ngs/gm and 280 ngs/gm and the “Concentration … average” value [4, 12] was 193 ngs/gm. The “Concentration … individual” value [4, 12] was 243 ngs/gm and 142 ngs/gm, the “Concentration … average” value [4, 13] was 211 ngs/gm and the “Concentration … individual” value [4, 13] was 208 ngs/gm and 214 ngs/gm. The “Concentration … average” value [4, 14] was 134 ngs/gm, the “Concentration … individual” value [4, 14] was 144 ngs/gm and 124 ngs/gm and the “Concentration … average” value [4, 15] was 190 ngs/g. The “Concentration … individual” value [4, 15] was 193 ngs/g and 187 ngs/g, the “Concentration … average” value ([4]; male rat, Group 2, 512 in diet) was 214 ngs/g and the “Concentration … individual” value ([4]; male rat, Group 2, 512 in diet) was 170 ngs/g and 257 ngs/g. The “Concentration … average” value ([4]; male rat, Group 3, 256 in diet) was 375 ngs/g, the “Concentration … individual” value ([4]; male rat, Group 3, 256 in diet) was 325 ngs/g and 424 ngs/g and the “Concentration … average” value ([4]; male rat, Group 4, 128 in diet) was 201 ngs/g. The “Concentration … individual” value ([4]; male rat, Group 4, 128 in diet) was 239 ngs/g and 162 ngs/g, the “Concentration … average” value ([4]; male rat, Group 5, 51 in diet) was 151 ngs/g and the “Concentration … individual” value ([4]; male rat, Group 5, 51 in diet) was 167 ngs/g and 135 ngs/g.
